According to PubChem BioAssay (NCI):
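Briefly, cells in 96-well plates were exposed to five compound concentrations for 48 h, and endpoints were estimated by linear interpolation. The concentration for 50% growth inhibition is given as GI50. TGI marks complete inhibition of growth.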

Key:
Assay in all cases: inhibition of tumour cell growth, NCI panel, 48 h
[1] = system: HS 578T breast
[2] = system: IGROV1 ovarian
[3] = system: K-562 leukemia
[4] = system: MDA-MB-231 breast
[5] = system: OVCAR-4 ovarian
[6] = system: RXF 393 renal
[7] = system: SK-MEL-28 melanoma
[8] = system: SK-OV-3 ovarian
[9] = system: T-47D breast
[10] = system: UACC-62 melanoma

Compound	GI50 [1] [nM]	TGI [1] [nM]	GI50 [2] [nM]	TGI [2] [nM]	GI50 [3] [nM]	TGI [3] [nM]	GI50 [4] [nM]	TGI [4] [nM]	GI50 [5] [nM]	TGI [5] [nM]	GI50 [6] [nM]	TGI [6] [nM]	GI50 [7] [nM]	TGI [7] [nM]	GI50 [8] [nM]	TGI [8] [nM]	GI50 [9] [nM]	TGI [9] [nM]	GI50 [10] [nM]	TGI [10] [nM]
Oc1c(-c2cc(C(F)(F)F)[nH]n2)cc(Cl)c(OCc2ccc(Cl)cc2)c1-c1ccc(Cl)c(C(F)(F)F)c1	344	2850	965	5930	126	6810	460	3070	1310	7410	226	1670	392	2130	1540	4660	147	1530	355	1420
COc1ccc2c(-c3ccnc(Nc4cccc(OC(F)(F)F)c4)n3)cnn2n1	835	> 9950	2390	> 12500	420	> 25000	3630	> 25000	3320	12500	1740	6660	3470	> 25000	1190	6100	1710	6560	863	6940
CCN1C(=O)N(CC)C2C1NN=c1s/c(=C\c3ccc(F)cc3)c(=O)n12 (stereo not given)	183	> 100000	584	> 100000	56.6	> 100000	406	> 80200	786	> 100000	162	622	599	> 100000	343	> 100000	30800	> 100000	111	> 100000
CC1c2ccccc2CCN1c1ccc(CO)c(Cl)c1 (stereo not given)	21900	70700	48.8	307	385	> 100000	15500	58400	49	2700	1200	23800	17100	63700	1610	10700	53	311	150	14500
